Results from US20250295648A1 (priority 2024, published 2025).

What was measured:
[1] = test system: L-DOPA-induced dyskinesia in rat; details: 2-week treatment period; cited from earlier work
[2] = test system: L-DOPA-induced dyskinesia in Parkinson's disease patients; assay: Unified Dyskinesia Rating Scale (UDysRS) after 150% L-DOPA challenge; details: for UDysRS Part 3+4 score, change from baseline: PPS
Experimental: Patients were rated for dyskinesia at baseline and on days 28 (at end of up-titration period) and 42 (end of stable dosing period). Because the level of dyskinesia experienced by patients can vary over time, they were given 150% (i.e., 1.5×) of their regular L-DOPA dose (up to a maximum of 250 mg) as a challenge 30 min before each dyskinesia assessment to improve comparability between patients and between visits. Patients were filmed 30, 60 and 90 min after dosing with L-DOPA (˜5 min of filming each time). LID was assessed using the Unified Dyskinesia Rating Scale (UDysRS). Changes from baseline are shown for total score (i.e., Parts 1 to 4), for total objective score (i.e., Parts 3+4), and for the sum of Part 3 objective impairment assessment scores. Because objective LID assessment was carried out at 3 time-points (30, 60 and 90 min) following L-DOPA challenge, the above parameters were analyzed based on the most severe of the three scores as well as on the average score of the 3 time points.
The patient took 150% of their normal L-DOPA dose 30 minutes prior to the start of efficacy assessments (UDysRS) at Day 1 (Visit 2), Day 28 (Visit 6) and Day 42 (Visit 7).
The UDysRS is a rating instrument designed to assess the core features of dyskinesia in Parkinson's Disease. The UDysRS consists of 4 parts: • r. Part I, historical disability with regard to the patient's perceptions of the impact on activities of ADL of on-dyskinesia. • s. Part II, historical disability with regard to the patient's perceptions of the impact on ADL of off-dystonia. • t. Part III, objective impairment, which assesses severity of dyskinesia, affected body parts, and type of impairment (choreic vs. dystonic). • u. Part IV, objective disability, based on an evaluation of Part III activities.
Each item in the UDysRS is scored from 0 to 4, with a possible maximum total score of 104.
The UDysRS assessment would be performed at baseline (Day 1, Visit 2), Day 28 and Day 42 (Visits 6 and 7) starting approximately 30 minutes after the L-DOPA challenge on these days.
The data for all 3 assessments performed at each visit would be entered in the eCRF and the Investigator will highlight which of the assessments, corresponding to the assessment where the patient had most severe dyskinesia, that would be used in the descriptive summaries of data.
Change from baseline in the UDysRS total score to Visit 6 (Day 28) and Visit 7 (Day 42) respectively would be summarized using descriptive statistics. […] The same analysis would be done for UDysRS total objective score Part III and IV only.
The baseline value of the dependent variable has been included in the model as a continuous covariate.

[3] = 5 patients co-treated with amantadine
[4] = Full analysis set, Visit 2 Baseline
[5] = Full analysis set, Visit 6 Clinic Efficacy Visit
[6] = Full analysis set, Visit 7 Clinic Efficacy Visit
[7] = Full analysis set, average of assessment sessions Part 3 and Part 4, Visit 2 Baseline
[8] = Full analysis set, average of assessment sessions Part 3 and Part 4, Visit 6 Clinic Efficacy Visit
[9] = Full analysis set, average of assessment sessions Part 3 and Part 4, Visit 7 Clinic Efficacy Visit
[10] = Full analysis set, average of assessment sessions, highest item score, Visit 2 Baseline
[11] = Full analysis set, average of assessment sessions, highest item score, Visit 6 Clinic Efficacy Visit
[12] = Full analysis set, average of assessment sessions, highest item score, Visit 7 Clinic Efficacy Visit
[13] = Full analysis set, most severe session, highest item score, Visit 2 Baseline
[14] = Full analysis set, most severe session, highest item score, Visit 6 Clinic Efficacy Visit
[15] = Full analysis set, most severe session, highest item score, Visit 7 Clinic Efficacy Visit
[16] = Visit 2 Baseline, per protocol analysis set, N = 15

Cc1ccc(CNCC2(F)CCN(C(=O)c3ccc(F)c(Cl)c3)CC2)nc1 [NLX-112, (3-chloro-4-fluoro-phenyl)-[4-fluoro-4-{[(5-methyl-pyridin-2-ylmethyl)-amino]-methyl}piperidin-1-yl]methanone]
antidyskinetic efficacy against L-DOPA-induced dyskinesia [1]: did maintain its antidyskinetic efficacy | UDysRS Part 3 + 4, mean change from baseline [2, 3]: −4.4 | UDysRS Total, mean change from baseline [2, 3]: −4.0 | UDysRS Part 3+4 score, change from baseline ([2]; Day 28, average of 3 assessments (30, 60, 90 min), p=0.0065): −2.49 points | UDysRS total score (Parts 1-4), change from baseline ([2]; Day 28, most severe assessment, PPS n=15, p=0.0281 vs baseline): −4.1 points | UDysRS Part 3+4 score, change from baseline ([2]; Day 28, most severe assessment, not statistically significant): −1.7 points | UDysRS sum of Part 3 items, average of all 3 assessments, vs baseline ([2]; Day 28 and Day 42, within NLX-112 group): significant reduction | UDysRS total score or total objective (Parts 3 and 4) score, change from baseline, NLX-112 vs placebo ([2]; Day 28 or Day 42): no significant differences | UDysRS Part 3+4 score, change from baseline ([2]; Day 42, average of 3 assessments (30, 60, 90 min), p=0.0005): −3.31 points | UDysRS total score (Parts 1-4), change from baseline ([2]; Day 42, most severe assessment, PPS n=15, p=0.0016 vs baseline): −6.3 points | UDysRS Part 3+4 score, change from baseline ([2]; Day 42, most severe assessment, p=0.0038 vs baseline): −3.1 points | UDysRS Parts 1, 2, 3, and 4 most severe, collected value, mean [2, 4]: 31.8 | UDysRS Parts 1, 2, 3, and 4 most severe, collected value, median [2, 4]: 31.0 | UDysRS Parts 1, 2, 3, and 4 most severe, absolute change from baseline, mean [2, 5]: −4.1 | UDysRS Parts 1, 2, 3, and 4 most severe, absolute change from baseline, median [2, 5]: −2.0 | UDysRS Parts 1, 2, 3, and 4 most severe, collected value, mean [2, 5]: 27.5 | UDysRS Parts 1, 2, 3, and 4 most severe, collected value, median [2, 5]: 28.0 | UDysRS Parts 1, 2, 3, and 4 most severe, relative change from baseline (%), mean [2, 5]: −10.2% | UDysRS Parts 1, 2, 3, and 4 most severe, relative change from baseline (%), median [2, 5]: −6.45% | UDysRS Parts 1, 2, 3, and 4 most severe, absolute change from baseline, mean [2, 6]: −6.3 | UDysRS Parts 1, 2, 3, and 4 most severe, absolute change from baseline, median [2, 6]: −8.0 | UDysRS Parts 1, 2, 3, and 4 most severe, collected value, mean [2, 6]: 25.3 | UDysRS Parts 1, 2, 3, and 4 most severe, collected value, median [2, 6]: 24.0 | UDysRS Parts 1, 2, 3, and 4 most severe, relative change from baseline (%), mean [2, 6]: −19.0% | UDysRS Parts 1, 2, 3, and 4 most severe, relative change from baseline (%), median [2, 6]: −25.8% | UDysRS Parts 1, 2, 3, and 4 average, collected value, mean [2, 7]: 30.43 | UDysRS Parts 1, 2, 3, and 4 average, collected value, median [2, 7]: 29.67 | UDysRS Parts 1, 2, 3, and 4 average, absolute change from baseline, mean [2, 8]: −4.82 | UDysRS Parts 1, 2, 3, and 4 average, absolute change from baseline, median [2, 8]: −3.00 | UDysRS Parts 1, 2, 3, and 4 average, collected value, mean [2, 8]: 25.33 | UDysRS Parts 1, 2, 3, and 4 average, collected value, median [2, 8]: 25.33 | UDysRS Parts 1, 2, 3, and 4 average, relative change from baseline (%), mean [2, 8]: −9.33% | UDysRS Parts 1, 2, 3, and 4 average, relative change from baseline (%), median [2, 8]: −10.6% | UDysRS Parts 1, 2, 3, and 4 average, absolute change from baseline, mean [2, 9]: −6.51 | UDysRS Parts 1, 2, 3, and 4 average, absolute change from baseline, median [2, 9]: −7.67 | UDysRS Parts 1, 2, 3, and 4 average, collected value, mean [2, 9]: 23.64 | UDysRS Parts 1, 2, 3, and 4 average, collected value, median [2, 9]: 23.00 | UDysRS Parts 1, 2, 3, and 4 average, relative change from baseline (%), mean [2, 9]: −19.5% | UDysRS Parts 1, 2, 3, and 4 average, relative change from baseline (%), median [2, 9]: −21.9% | UDysRS Parts 3 and 4 average, collected value, mean [2, 10]: 13.98 | UDysRS Parts 3 and 4 average, collected value, median [2, 10]: 13.17 | UDysRS Parts 3 and 4 average, absolute change from baseline, mean [2, 11]: −2.49 | UDysRS Parts 3 and 4 average, absolute change from baseline, median [2, 11]: −1.67 | UDysRS Parts 3 and 4 average, collected value, mean [2, 11]: 11.60 | UDysRS Parts 3 and 4 average, collected value, median [2, 11]: 10.33 | UDysRS Parts 3 and 4 average, relative change from baseline (%), mean [2, 11]: −17.3% | UDysRS Parts 3 and 4 average, relative change from baseline (%), median [2, 11]: −20.0% | UDysRS Parts 3 and 4 average, absolute change from baseline, mean [2, 12]: −3.31 | UDysRS Parts 3 and 4 average, absolute change from baseline, median [2, 12]: −3.33 | UDysRS Parts 3 and 4 average, collected value, mean [2, 12]: 10.78 | UDysRS Parts 3 and 4 average, collected value, median [2, 12]: 9.67 | UDysRS Parts 3 and 4 average, relative change from baseline (%), mean [2, 12]: −25.3% | UDysRS Parts 3 and 4 average, relative change from baseline (%), median [2, 12]: −31.5% | UDysRS Parts 3 and 4 most severe, collected value, mean [2, 13]: 15.3 | UDysRS Parts 3 and 4 most severe, collected value, median [2, 13]: 13.5 | UDysRS Parts 3 and 4 most severe, absolute change from baseline, mean [2, 14]: −1.7 | UDysRS Parts 3 and 4 most severe, absolute change from baseline, median [2, 14]: −1.0 | UDysRS Parts 3 and 4 most severe, collected value, mean [2, 14]: 13.8 | UDysRS Parts 3 and 4 most severe, collected value, median [2, 14]: 12.0 | UDysRS Parts 3 and 4 most severe, relative change from baseline (%), mean [2, 14]: −15.8% | UDysRS Parts 3 and 4 most severe, relative change from baseline (%), median [2, 14]: −8.33% | UDysRS Parts 3 and 4 most severe, absolute change from baseline, mean [2, 15]: −3.1 | UDysRS Parts 3 and 4 most severe, absolute change from baseline, median [2, 15]: −4.0 | UDysRS Parts 3 and 4 most severe, collected value, mean [2, 15]: 12.4 | UDysRS Parts 3 and 4 most severe, collected value, median [2, 15]: 11.0 | UDysRS Parts 3 and 4 most severe, relative change from baseline (%), mean [2, 15]: −21.0% | UDysRS Parts 3 and 4 most severe, relative change from baseline (%), median [2, 15]: −31.6% | UDysRS Parts 1, 2, 3, and 4 average, collected value, mean [2, 16]: 30.16 | UDysRS Parts 1, 2, 3, and 4 average, collected value, median [2, 16]: 29.33 | UDysRS Parts 1, 2, 3, and 4 most severe, collected value, mean [2, 16]: 31.6 | UDysRS Parts 1, 2, 3, and 4 most severe, collected value, median [2, 16]: 31.0 | UDysRS Parts 3 and 4 average, collected value, mean [2, 16]: 14.09 | UDysRS Parts 3 and 4 average, collected value, median [2, 16]: 13.00 | UDysRS Parts 3 and 4 most severe, collected value, mean [2, 16]: 15.5
